In general, chromatographic logD refers to a lipophilicity value derived from retention on a column. Lower therefore signals a more hydrophilic compound.

The values below come from ChEMBL document CHEMBL4382257, “Identification and Profiling of Hydantoins-A Novel Class of Potent Antimycobacterial DprE1 Inhibitors” (J Med Chem, 2018).

The data set can be described thus: physchem. Conditions: buffer, pH 7.4, logD.
As for `CC1(c2ccc(N)cc2)NC(=O)N(CC(=O)c2ccc(F)cc2F)C1=O` (stereo unspecified), the chromatographic logD worked out at 3.38.

Compound `CC1(c2ccc(C#N)cc2)NC(=O)N(C2Cc3cc(F)cc(F)c3C2=O)C1=O` (stereo unspecified) returned a chromatographic logD of 4.33.

`CC1(c2ccc(OC(F)F)cc2)NC(=O)N(CC(=O)N2CCCC2)C1=O` (stereo unspecified) registered a chromatographic logD of 3.37.

As to `CC1(c2ccc(OC(F)F)cc2)NC(=O)N(CC(=O)c2ccccc2F)C1=O` (stereo unspecified), the chromatographic logD is 5.23.

`COc1ccc(C2(C)NC(=O)N(CC(=O)c3ccc(F)cc3F)C2=O)cc1` (stereo unspecified) showed a chromatographic logD of 4.78.

`Cc1cc(C(=O)CN2C(=O)NC(C)(c3ccc(OC(F)F)cc3)C2=O)c(C)[nH]1` (stereo unspecified): the chromatographic logD is 4.12.

`N#Cc1ccc(-c2cn(CC(=O)c3ccc(F)cc3F)cn2)cc1` showed a chromatographic logD of 4.58.

As for `CC1(c2ccc(C#N)cc2)NC(=O)N(CC(=O)c2ncc(F)cc2F)C1=O` (stereo unspecified), the chromatographic logD was 3.89.

`CC1(c2ccc(OC(F)F)cc2)NC(=O)N(CC(=O)c2ccc(Cl)s2)C1=O` (stereo unspecified) displayed a chromatographic logD of 5.49.

For `Cc1ccc(C(=O)CN2C(=O)NC(C)(c3ccc(OC(F)F)cc3)C2=O)s1` (stereo unspecified), the chromatographic logD is 5.06.

Regarding `CC1(c2ccc(Cl)cc2)NC(=O)N(CC(=O)c2ccc(F)cc2F)C1=O` (stereo unspecified), the chromatographic logD amounted to 5.54.

As to `CC1(c2ccc(OC(F)(F)F)cc2)NC(=O)N(CC(=O)c2ccc(F)cc2F)C1=O` (stereo unspecified), the chromatographic logD stood at 6.05.

Take `COc1cc(C2(C)NC(=O)N(CC(=O)c3ccc(F)cc3F)C2=O)ccc1OC(F)F` (stereo unspecified): the chromatographic logD was determined as 5.5.

For the compound `CC(=O)Nc1ccc(C2(C)NC(=O)N(CC(=O)c3ccc(F)cc3F)C2=O)cc1` (stereo unspecified), the chromatographic logD was 3.28.

The compound `CC1(c2ccc(Cl)cc2)NC(=O)N(C(=O)c2ccc(F)cc2F)C1=O` (stereo unspecified) came in with a chromatographic logD of 3.72.

In turn, `N#Cc1ccc(-c2cnn(CC(=O)c3ccc(F)cc3F)c2)cc1` returned a chromatographic logD of 5.17.

For the compound `CC1(c2ccc(OC(F)F)cc2)NC(=O)N(CC(=O)c2ccncc2)C1=O` (stereo unspecified), the chromatographic logD came to 3.52.

For the compound `CC1(c2ccc(Cl)cc2)NC(=O)N(CC(=O)c2ccc(F)cc2)C1=O` (stereo unspecified), the chromatographic logD stood at 5.28.

Turning to `CC1(c2ccc(-n3ccnc3)cc2)NC(=O)N(CC(=O)c2ccc(F)cc2F)C1=O` (stereo unspecified), the chromatographic logD was found to be 3.84.

As for `CC1(c2ccc(C#N)nc2)NC(=O)N(CC(=O)c2ccc(F)cc2F)C1=O` (stereo unspecified), the chromatographic logD amounted to 3.94.

As to `CC1(c2ccc(C#N)cc2)NC(=O)N(CC(=O)c2cccc(C(F)(F)F)c2)C1=O` (stereo unspecified), the chromatographic logD turned out to be 5.3.

Take `COc1ccc(C2(C)NC(=O)N(Cc3ccc(F)cc3)C2=O)cc1` (stereo unspecified): the chromatographic logD was 4.72.

The compound `COc1ccc(C2(C)NC(=O)N(C(=O)c3ccc(F)cc3F)C2=O)cc1` (stereo unspecified) gave a chromatographic logD of 3.43.

Consider `COc1ccc(C(=O)CN2C(=O)NC(C)(c3ccc(OC(F)F)cc3)C2=O)cc1F` (stereo unspecified), for which the chromatographic logD was determined as 5.03.

On to `CCOc1ccc(C2(C)NC(=O)N(CC(=O)c3ccc(F)cc3F)C2=O)cc1` (stereo unspecified), for which the chromatographic logD amounted to 5.43.

Compound `CC1(c2cccc(C#N)c2)NC(=O)N(CC(=O)c2ccc(F)cc2F)C1=O` (stereo unspecified) returned a chromatographic logD of 4.51.

Consider `CC1(c2ccc(C#N)cc2)NC(=O)N(CC(=NO)c2ccc(F)cc2F)C1=O` (stereo in doubt; 43b), for which the chromatographic logD worked out at 3.59.

Take `CC1(c2ccc(C#N)cc2)NC(=O)N(CC(=O)c2nccs2)C1=O` (stereo unspecified): the chromatographic logD was determined as 3.42.

`CC1(c2ccc(OC(F)F)cc2)NC(=O)N(CC(=O)c2ccccc2)C1=O` (stereo unspecified) had a chromatographic logD of 4.97.

`CCCC1(c2ccc(Br)cc2)NC(=O)N(CC(=O)c2ccc(F)cc2F)C1=O` (stereo unspecified) yielded a chromatographic logD of 6.64.

In the case of `CC1(c2ccc(OC(F)F)cc2)NC(=O)N(CC(=O)c2cccnc2)C1=O` (stereo unspecified), the chromatographic logD was 3.54.

Compound `CC1(c2ccc(C#N)cc2)NC(=O)N(CC(=O)C23CC4CC(CC(C4)C2)C3)C1=O` (stereo unspecified) came in with a chromatographic logD of 6.31.

`O=C(CN1C(=O)NC2(CCc3cc(Br)ccc32)C1=O)c1ccc(F)cc1F` (stereo unspecified) registered a chromatographic logD of 5.71.

As for `COc1ccc(C2(C)NC(=O)N(CC(O)c3ccc(F)cc3F)C2=O)cc1` (stereo unspecified), the chromatographic logD was 3.96.

With `CC1(c2ccc(OC(F)F)cc2)NC(=O)N(CC(=O)c2nccs2)C1=O` (stereo unspecified), the chromatographic logD turned out to be 4.45.

In turn, `CC1(c2ccc(C#N)s2)NC(=O)N(CC(=O)c2ccc(F)cc2F)C1=O` (stereo unspecified) displayed a chromatographic logD of 4.67.

For the compound `CC1(c2cccc(Br)c2)NC(=O)N(CC(=O)c2ccc(F)cc2F)C1=O` (stereo unspecified), the chromatographic logD was found to be 5.72.

The compound `COc1cccc(C(=O)CN2C(=O)NC(C)(c3ccc(C#N)cc3)C2=O)c1` (stereo unspecified) returned a chromatographic logD of 4.39.

For `COc1cc(C2(C)NC(=O)N(CC(=O)c3ccc(F)cc3F)C2=O)cc(OC)c1OC` (stereo unspecified), the chromatographic logD was determined as 4.47.

`CC1(c2ccc(Cl)cc2)NC(=O)N(CCc2ccc(F)cc2)C1=O` (stereo unspecified) gave a chromatographic logD of 5.68.

`CC1(c2ccc(Cl)cc2)NC(=O)N(Cc2ccc(F)cc2)C1=O` (stereo unspecified) registered a chromatographic logD of 5.59.

For the compound `CC1(c2ccc(Br)cc2F)NC(=O)N(CC(=O)c2ccc(F)cc2F)C1=O` (stereo unspecified), the chromatographic logD amounted to 5.8.

As for `CC1(c2ccc(OC(F)F)cc2)NC(=O)N(CC(=O)c2ccc(F)cc2)C1=O` (stereo unspecified), the chromatographic logD came out at 5.08.

With `CC1(c2ccc(OC(F)F)cc2)NC(=O)N(CC(=O)c2cccc(F)c2)C1=O` (stereo unspecified), the chromatographic logD was found to be 5.13.

`CC1(c2ccc(C(F)(F)F)cc2)NC(=O)N(CC(=O)c2ccc(F)cc2F)C1=O` (stereo unspecified) came in with a chromatographic logD of 6.01.

On to `COc1cccc(C2(C)NC(=O)N(CC(=O)c3ccc(F)cc3F)C2=O)c1` (stereo unspecified), for which the chromatographic logD worked out at 4.96.

`CC1(c2ccc(OC(F)F)cc2)NC(=O)N(CC(=O)c2ccc3c(c2)OCO3)C1=O` (stereo unspecified) showed a chromatographic logD of 4.9.

As for `O=C(CN1C(=O)NC(c2ccc(Br)cc2)(C(F)(F)F)C1=O)c1ccc(F)cc1F` (stereo unspecified), the chromatographic logD was 6.8.

In turn, `CC1(c2ccc(Cl)cc2)NC(=O)N(CCC(=O)c2ccc(F)cc2)C1=O` (stereo unspecified) returned a chromatographic logD of 5.35.

`CC1(c2ccc(OC(F)F)cc2)NC(=O)N(CC(=O)c2cccs2)C1=O` (stereo unspecified) showed a chromatographic logD of 4.59.

Compound `CC1(c2ccc(Br)cn2)NC(=O)N(CC(=O)c2ccc(F)cc2F)C1=O` (stereo unspecified) displayed a chromatographic logD of 4.87.

`CC1(c2cccc(NS(C)(=O)=O)c2)NC(=O)N(CC(=O)c2ccc(F)cc2F)C1=O` (stereo unspecified): the chromatographic logD is 3.67.

Turning to `CC1(c2ccc(Br)nc2)NC(=O)N(CC(=O)c2ccc(F)cc2F)C1=O` (stereo unspecified), the chromatographic logD turned out to be 4.67.

Consider `COc1ccc(C2(C)NC(=O)N(CC(=O)c3ccc(F)cc3F)C2=O)c(F)c1` (stereo unspecified), for which the chromatographic logD came out at 5.05.

The compound `CC1(c2ccc(N3CCOCC3)cc2)NC(=O)N(CC(=O)c2ccc(F)cc2F)C1=O` (stereo unspecified) gave a chromatographic logD of 4.45.

`CC1(c2ccc(C#N)cc2)NC(=O)N(CCc2ccc(F)cc2)C1=O` (stereo unspecified) yielded a chromatographic logD of 4.56.

`Cc1ccc(C)c(C(=O)CN2C(=O)NC(C)(c3ccc(OC(F)F)cc3)C2=O)c1` (stereo unspecified) displayed a chromatographic logD of 5.97.

On to `C[C@]1(c2ccc(C#N)cc2)NC(=O)N(CC(=O)c2ccc(F)cc2F)C1=O`, for which the chromatographic logD is 4.51.

In the case of `C[C@@]1(c2ccc(C#N)cc2)NC(=O)N(CC(=O)c2ccc(F)cc2F)C1=O`, the chromatographic logD is 4.51.

`CC1(c2ccc(Br)cc2)CCN(CC(=O)c2ccc(F)cc2F)C1=O` (stereo unspecified): the chromatographic logD stood at 6.74.

In turn, `COc1ccc(F)cc1C(=O)CN1C(=O)NC(C)(c2ccc(OC(F)F)cc2)C1=O` (stereo unspecified) came in with a chromatographic logD of 5.42.

Consider `CC1(c2ccc(OC(F)F)cc2)NC(=O)N(CC(=O)N2CCCCC2)C1=O` (stereo unspecified), for which the chromatographic logD came out at 4.03.

Compound `CC1(c2ccc(C#N)cc2)NC(=O)N(CCC(=O)c2ccc(F)cc2)C1=O` (stereo unspecified) showed a chromatographic logD of 4.4.

As to `Cc1ccc(C2(C)NC(=O)N(CC(=O)c3ccc(F)cc3F)C2=O)cc1` (stereo unspecified), the chromatographic logD is 5.41.

In turn, `COc1ccc(C2(C)NC(=O)N(CCC(=O)c3ccc(F)cc3)C2=O)cc1` (stereo unspecified) gave a chromatographic logD of 4.6.

`COc1ccc(C2(C)NC(=O)N(CCc3ccc(F)cc3)C2=O)cc1` (stereo unspecified): the chromatographic logD was determined as 4.84.

With `CCC1(c2ccc(Br)cc2)NC(=O)N(CC(=O)c2ccc(F)cc2F)C1=O` (stereo unspecified), the chromatographic logD was 6.17.

Consider `CCC1(c2ccc(C#N)cc2)NC(=O)N(CC(=O)c2ccc(F)cc2F)C1=O` (stereo unspecified), for which the chromatographic logD was 4.99.

In turn, `COc1ccc(C(=O)CN2C(=O)NC(C)(c3ccc(C#N)cc3)C2=O)cc1` (stereo unspecified) yielded a chromatographic logD of 4.25.

`COc1ccc(C(=O)CN2C(=O)NC(C)(c3ccc(OC(F)F)cc3)C2=O)cc1` (stereo unspecified) showed a chromatographic logD of 4.92.

`CC1(c2ccc(C#N)cc2)NC(=O)N(CC(=O)c2cccc([N+](=O)[O-])c2)C1=O` (stereo unspecified) yielded a chromatographic logD of 4.25.

Take `CC1(c2ccc(C#N)cc2)NC(=O)N(Cc2ccc(F)cc2)C1=O` (stereo unspecified): the chromatographic logD came out at 4.5.

The compound `CC(=O)N1C(=O)N(CC(=O)c2ccc(F)cc2F)C(=O)C1(C)c1ccc(C#N)cc1` (stereo unspecified) yielded a chromatographic logD of 5.77.

As for `COc1ccc(C2(C)NC(=O)N(CC(=O)c3ccc(F)cc3F)C2=O)cc1F` (stereo unspecified), the chromatographic logD stood at 4.84.

`CC1(c2ccc(Br)cc2)CC(=O)N(CC(=O)c2ccc(F)cc2F)C1=O` (stereo unspecified) showed a chromatographic logD of 6.86.

`COc1ccccc1C(=O)CN1C(=O)NC(C)(c2ccc(C#N)cc2)C1=O` (stereo unspecified): the chromatographic logD is 4.45.

The compound `COc1ccc(C2(C)NC(=O)N(CC(=O)c3ccc(F)cc3)C2=O)cc1` (stereo unspecified) yielded a chromatographic logD of 4.53.

`CC1(c2ccc(C#N)cn2)NC(=O)N(CC(=O)c2ccc(F)cc2F)C1=O` (stereo unspecified) registered a chromatographic logD of 3.97.

On to `CC1(c2ccc(OC(F)F)cc2)NC(=O)N(CC(=O)c2ccc[nH]2)C1=O` (stereo unspecified), for which the chromatographic logD amounted to 3.91.

`CC1(c2ccncc2)NC(=O)N(CC(=O)c2ccc(F)cc2F)C1=O` (stereo unspecified) displayed a chromatographic logD of 3.04.

In turn, `CN1C(=O)N(CC(=O)c2ccc(F)cc2F)C(=O)C1(C)c1ccc(C#N)cc1` (stereo unspecified) yielded a chromatographic logD of 5.22.

`CC1(c2ccc(C#N)cc2)NC(=O)N(CC(=O)c2ccc(F)cc2)C1=O` (stereo unspecified): the chromatographic logD stood at 4.26.

On to `COc1ccc(C2(C)CN(CC(=O)c3ccc(F)cc3F)C(=O)N2)cc1` (stereo in doubt; 151a), for which the chromatographic logD amounted to 4.72.

Compound `CC1(c2ccc(C#N)cc2)NC(=O)N(CC(F)(F)c2ccc(F)cc2F)C1=O` (stereo unspecified) gave a chromatographic logD of 5.1.

Consider `COc1ccc(-c2cn(CC(=O)c3ccc(F)cc3F)cn2)cc1`, for which the chromatographic logD is 4.68.

`CC1(c2ccc(OC(F)F)cc2)NC(=O)N(CC(=O)c2ccccn2)C1=O` (stereo unspecified) gave a chromatographic logD of 4.35.
